Experiments:
rhinovirus B14 [1] = assay: Ratio of EC50 for HRV14 infected in human H1-HeLa cells after 9 passages for 48 days to EC50 for wild type HRV14 infected in human H1-HeLa cells; type: functional
rhinovirus A2 [2] = assay: Ratio of EC50 for HRV2 with 3C protease N165T mutation infected in human H1-HeLa cells after 4 passages for 24 days to EC50 for wild type HRV2 infected in human H1-HeLa cells; type: functional
rhinovirus A2 [3] = assay: Ratio of EC50 for HRV2 with 3C protease N165T mutation infected in human H1-HeLa cells after 5 passages for 30 days to EC50 for wild type HRV2 infected in human H1-HeLa cells; type: functional
rhinovirus A2 [4] = assay: Ratio of EC50 for HRV2 with 3C protease N165T mutation infected in human H1-HeLa cells after 6 passages for 37 days to EC50 for wild type HRV2 infected in human H1-HeLa cells; type: functional
rhinovirus A2 [5] = assay: Ratio of EC50 for HRV2 with 3C protease E3E/G, A103A/V, N165T mutation infected in human H1-HeLa cells after 9 passages for 62 days to EC50 for wild type HRV2 infected in human H1-HeLa cells; type: functional
rhinovirus A39 [6] = assay: Ratio of EC50 for HRV39 infected in human H1-HeLa cells after 6 passages for 33 days to EC50 for wild type HRV39 infected in human H1-HeLa cells; type: functional
rhinovirus A39 [7] = assay: Antiviral activity against wild type HRV39 infected in human H1-HeLa cells assessed as virus-induced cytopathic effect after 3 days by XTT assay; type: functional, organism-based; settings: Rhinovirus A, 72 h
rhinovirus B14 [8] = assay: Antiviral activity against HRV14 with 3C protease T129T/A, T131T/A, T143P/S mutation infected in human H1-HeLa cells assessed as virus-induced cytopathic effect after 3 passages for 14 days by XTT assay; type: functional, organism-based; settings: Rhinovirus B, 336 h
rhinovirus B14 [9] = assay: Antiviral activity against HRV14 with 3C protease T129A, T131T/A, T143P mutation infected in human H1-HeLa cells assessed as virus-induced cytopathic effect after 4 passages for 17 days by XTT assay; type: functional, organism-based; settings: Rhinovirus B, 408 h
rhinovirus B14 [10] = assay: Antiviral activity against HRV14 with 3C protease T129A, T131T/A, T143P mutation infected in human H1-HeLa cells assessed as virus-induced cytopathic effect after 5 passages for 22 days by XTT assay; type: functional, organism-based; settings: Rhinovirus B, 528 h
rhinovirus B14 [11] = assay: Antiviral activity against HRV14 with 3C protease T129A, T131A, T143P, Y139Y/H mutation infected in human H1-HeLa cells assessed as virus-induced cytopathic effect after 10 passages for 55 days by XTT assay; type: functional, organism-based; settings: Rhinovirus B
rhinovirus B14 [12] = assay: Ratio of EC50 for HRV14 with 3C protease T129T/A, T131T/A, T143P/S mutation infected in human H1-HeLa cells after 3 passages for 14 days to EC50 for wild type HRV14 infected in human H1-HeLa cells; type: functional
rhinovirus A39 [13] = assay: Ratio of EC50 for HRV39 with 3C protease […], L136/F mutation infected in human H1-HeLa cells after 5 passages for 29 days to EC50 for wild type HRV39 infected in human H1-HeLa cells; type: functional
Human rhinovirus sp. [14] = assay: Antiviral activity against HRV Hanks with 3C protease T130A mutation infected in human H1-HeLa cells assessed as virus-induced cytopathic effect after 6 passages for 40 days by plaque reduction assay; type: functional, organism-based
Human rhinovirus sp. [15] = assay: Ratio of EC50 for HRV Hanks with 3C protease T130A mutation infected in human H1-HeLa cells after 6 passages for 40 days to EC50 for wild type HRV Hanks infected in human H1-HeLa cells; type: functional
rhinovirus B14 [16] = assay: Antiviral activity against 0.02 MOI wild type HRV14 infected in human H1-HeLa cells assessed as cell killing after 3 days by XTT assay; type: functional
rhinovirus B14 [17] = assay: Ratio of EC50 for HRV14 with 3C protease with A121A/V, T129A, T131A, N132S, Y139Y/H, T143P mutation infected in human H1-HeLa cells after 12 passages for 72 days to EC50 for wild type HRV14 infected in human H1-HeLa cells; type: functional
rhinovirus B14 [18] = assay: Antiviral activity against HRV14 with 3C protease T129A mutation infected in human H1-HeLa cells assessed as virus-induced cytopathic effect after 3 days by XTT assay; type: functional, organism-based; settings: Rhinovirus B, 72 h
rhinovirus B14 [19] = assay: Antiviral activity against HRV14 with 3C protease T131A mutation infected in human H1-HeLa cells assessed as virus-induced cytopathic effect after 3 days by XTT assay; type: functional, organism-based; settings: Rhinovirus B, 72 h
rhinovirus B14 [20] = assay: Antiviral activity against HRV14 with 3C protease T143P mutation infected in human H1-HeLa cells assessed as virus-induced cytopathic effect after 3 days by XTT assay; type: functional, organism-based; settings: Rhinovirus B, 72 h
rhinovirus B14 [21] = assay: Antiviral activity against HRV14 with 3C protease T129A, T131A, Y139H, T143P mutation infected in human H1-HeLa cells assessed as virus-induced cytopathic effect after 3 days by XTT assay; type: functional, organism-based; settings: Rhinovirus B, 72 h
rhinovirus B14 [22] = assay: Ratio of EC50 for HRV14 with 3C protease T131A mutation infected in human H1-HeLa cells to EC50 for wild type HRV14 infected in human H1-HeLa cells; type: functional
rhinovirus A2 [23] = assay: Ratio of EC50 for HRV2 infected in human H1-HeLa cells after 3 passages for 17 days to EC50 for wild type HRV2 infected in human H1-HeLa cells; type: functional
rhinovirus A2 [24] = assay: Ratio of EC50 for HRV2 infected in human H1-HeLa cells after 5 passages for 30 days to EC50 for wild type HRV2 infected in human H1-HeLa cells; type: functional
rhinovirus A2 [25] = assay: Ratio of EC50 for HRV2 infected in human H1-HeLa cells after 6 passages for 37 days to EC50 for wild type HRV2 infected in human H1-HeLa cells; type: functional
rhinovirus A2 [26] = assay: Ratio of EC50 for HRV2 infected in human H1-HeLa cells after 7 passages for 45 days to EC50 for wild type HRV2 infected in human H1-HeLa cells; type: functional
rhinovirus A2 [27] = assay: Ratio of EC50 for HRV2 infected in human H1-HeLa cells after 8 passages for 52 days to EC50 for wild type HRV2 infected in human H1-HeLa cells; type: functional
rhinovirus A2 [28] = assay: Ratio of EC50 for HRV2 infected in human H1-HeLa cells after 9 passages for 62 days to EC50 for wild type HRV2 infected in human H1-HeLa cells; type: functional
rhinovirus A2 [29] = assay: Ratio of EC50 for HRV2 infected in human H1-HeLa cells after 10 passages for 66 days to EC50 for wild type HRV2 infected in human H1-HeLa cells; type: functional
rhinovirus A2 [30] = assay: Antiviral activity against HRV2 infected in human H1-HeLa cells assessed as virus-induced cytopathic effect after 3 passages for 17 days by XTT assay; type: functional, organism-based; settings: Rhinovirus A, 408 h
rhinovirus A2 [31] = assay: Antiviral activity against HRV2 with 3C protease N165T mutation infected in human H1-HeLa cells assessed as virus-induced cytopathic effect after 5 passages for 30 days by XTT assay; type: functional, organism-based; settings: Rhinovirus A
rhinovirus A2 [32] = assay: Ratio of EC50 for HRV2 with 3C protease N165T mutation infected in human H1-HeLa cells after 3 passages for 24 days to EC50 for wild type HRV2 infected in human H1-HeLa cells; type: functional

CCOC(=O)/C=C/[C@H](C[C@@H]1CCNC1=O)NC(=O)[C@@H](CC(=O)[C@@H](NC(=O)c1cc(C)on1)C(C)C)Cc1ccc(F)cc1 [RUPINTRIVIR]
Ratio EC50 (rhinovirus B14 [1]): 60 | Ratio EC50 (rhinovirus A2 [2]): 2 | Ratio EC50 (rhinovirus A2 [3]): 2 | Ratio EC50 (rhinovirus A2 [4]): 2 | Ratio EC50 (rhinovirus A2 [5]): 5 | Ratio EC50 (rhinovirus A39 [6]): 6 | EC50 (rhinovirus A39 [7]): 24 nM | EC50 (rhinovirus B14 [8]): 152 nM | EC50 (rhinovirus B14 [9]): 227 nM | EC50 (rhinovirus B14 [10]): 96 nM | EC50 (rhinovirus B14 [11]): 324 nM | Ratio EC50 (rhinovirus B14 [12]): 7 | Ratio EC50 (rhinovirus A39 [13]): 3 | EC50 (Human rhinovirus sp. [14]): 51 nM | Ratio EC50 (Human rhinovirus sp. [15]): 3 | Activity (rhinovirus B14 [16]): 90.2% | Ratio EC50 (rhinovirus B14 [17]): 20 | EC50 (rhinovirus B14 [18]): 14 nM | EC50 (rhinovirus B14 [19]): 14 nM | EC50 (rhinovirus B14 [20]): 15 nM | EC50 (rhinovirus B14 [21]): 268 nM | Ratio EC50 (rhinovirus B14 [22]): 1 | Ratio EC50 (rhinovirus A2 [23]): 3 | Ratio EC50 (rhinovirus A2 [24]): 5 | Ratio EC50 (rhinovirus A2 [25]): 5 | Ratio EC50 (rhinovirus A2 [26]): 5 | Ratio EC50 (rhinovirus A2 [27]): 15 | Ratio EC50 (rhinovirus A2 [28]): 15 | Ratio EC50 (rhinovirus A2 [29]): 15 | EC50 (rhinovirus A2 [30]): 34 nM | EC50 (rhinovirus A2 [31]): 57 nM | Ratio EC50 (rhinovirus A2 [32]): 1

From ChEMBL document CHEMBL1151438, “In vitro resistance study of rupintrivir, a novel inhibitor of human rhinovirus 3C protease” (Antimicrob Agents Chemother, 2007)
